Measurements published in US9937194B1, “Compounds and methods for treating inflammatory diseases” (priority 2009, dated 2018).
Values after ≈ are worked out from the molar mass of the structure shown. Values joined by “and” are separate entries in the source; they are usually repeats but may differ in a detail not shown here. Identical values can stand only once.

Assays:
S. pneumoniae 303 (ErmB) = experiment: MIC; type: cell-based
[1] = system: S. aureus 96:11480 (MLS-I); experiment: MIC; type: cell-based; parameters: unit not given beside the values
S. aureus MRSA 33591 = experiment: MIC; type: cell-based
TNFα = experiment: LPS-induced TNFα release in PMA-differentiated U937 cells (ELISA); type: cell-based, human; conditions: test concentration not given
Method: (§1) Cytokine ELISA. LPS-induced IL-8, TNFα concentrations and TNFα-induced IL-8 concentrations are determined by sandwich ELISA according to the manufacturer's instructions (R&D Systems Europe). IC50 values for dexamethasone on IL-8 production are calculated using the computer program Prism 4.0 (GraphPad Software Inc., San Diego, Calif.) as a marker for steroid sensitivity.
(§2) Effects of compounds on LPS-induced IL-8 and TNFα release in PMA-differentiated U937 cells. PMA-differentiated macrophage-like cells are pretreated with compounds described herein for 1 hr, followed by LPS (100 ng/ml) stimulation for 4 hrs. LPS-induced IL-8 and TNFα release is evaluated by ELISA. Values represent means of three experiments±SEM.

E. faecium ATCC 19434 = experiment: MIC; type: cell-based
[2] = system: S. typhimurium ATCC 14028; experiment: MIC; type: cell-based; conditions: in µg/mL
H. influenzae ATCC 49247 = experiment: MIC; type: cell-based
[3] = system: S. aureus ATCC 29213 (MSSA) MLS-S; experiment: MIC; type: cell-based
S. pneumoniae ATCC 49619 = experiment: MIC; type: cell-based
[4] = type: cell-based; conditions: test concentration not given
Method: The human monocytic cell line U937 and the human type II alveolar epithelial carcinoma cell line A549 were obtained from the American Type Culture Collection (ATCC, Rockville, Md.). PBMCs from COPD patients were obtained in Brompton hospital and separated by AccuSPIN (Sigma-Aldrich, Poole, UK). Cells were cultured in complete growth medium (Sigma-Aldrich) (RPMI 1640 for U937, PBMCs, and Dulbecco's modified essential medium (DMEM) for A549) supplemented with 10% fetal bovine serum (FBS) and 1% L-glutamine at 37° C. in a humidified atmosphere with 5% CO2. U937 were differentiated into an adherent macrophage-like morphology by exposure to PMA (50 or 100 ng/ml) for 48 hrs in complete growth medium. Cell viability was assessed microscopically by trypan blue staining. Cell toxicity was determined by MTT assay as needed. This study was approved by the ethics committee of the Royal Brompton Hospitals, and all subjects gave written informed consent.

IL-8 = experiment: LPS-induced IL-8 release in PMA-differentiated U937 cells (ELISA); type: cell-based, human; conditions: test concentration not given
Method: as §1, §2

MMP9 = experiment: PMA-induced MMP9 expression in U937 cells (gelatin zymography); type: cell-based, human; conditions: for MMP9 inhibition (%): test concentration not given, bracketed second value not explained
Method: Zymography. MMP9 enzyme activity is measured by gelatin zymography. 5 μl of supernatants were diluted with 5 μl Laemli sample buffer (Bio-Rad) and are loaded on a Novex® 10% Zymogram (Gelatin) gel (Invitrogen). After electrophoresis (90 min, 125 V, 35 mA, 5 W) gels are incubated with 1× Novex® zymogram renaturing buffer (Invitrogen) for 30 min at room temperature with gentle agitation. Gels are then rinsed in 1× Novex® zymogram developing buffer (Invitrogen) for 30 min at room temperature with gentle agitation prior to overnight incubation in the developing buffer at 37° C. After incubation the gels are stained using the colloidal blue staining kit (Invitrogen) with buffer containing 20% methanol and 70% distilled water to visualize the zymogen bands. Relevant band intensities are quantified by densitometric analysis using the UVP GelDoc-It system.
Effects of compounds on PMA-induced MMP9 expression in U937 cells. U937 cells are pretreated with compounds described herein for 1 hr, followed by PMA (50 ng/ml) treatment for 48 hrs. After 48 hrs supernatants are collected for zymography. MMP9 enzyme activity is measured by gelatin zymography. Data are expressed as fold changes against positive control treated with PMA only. Values represent means of three experiments±SEM.

HDAC activity = experiment: H2O2-induced reduction of HDAC activity in PMA-differentiated U937 cells; type: cell-based, human; conditions: for restoration of H2O2-reduced HDAC activity (%): test concentration not given, bracketed second value not explained
Method: In cell HDAC assay. Cells are incubated with Fluor de Lys™ substrate for 1 hr before lyses. Total HDAC activity from whole cell extracts is measured using the HDAC Fluorimetric Assay/Drug Discovery Kit (BIOMOL® International, Inc., Plymouth Meeting, Pa.).
HDAC expression: In cell HDAC activity assay: U937 is differentiated to macrophage type cells by PMA for 3 days. HDAC fluorescent substrate (Biomol) is added before exposure of oxidative stress (H2O2, 200 μM) or Tobacco smoke conditioned medium for 4 hrs. HDAC activity is measured (Biomol kit). Compounds at different concentrations are treated 20 min before oxidative stress treatment.
PMA-differentiated macrophage-like cells are pretreated with compounds described herein for 20 min. After H2O2 (200 μM) stimulation for 4 hrs, HDAC activity is assayed. Data are expressed as fold changes against positive control treated with H2O2 only. Values represent means of four experiments±SEM.

E. coli ATCC 25922 = experiment: MIC; type: cell-based; conditions: in µg/mL
H. influenzae LC002 = experiment: MIC; type: cell-based
S. pneumoniae 163 (MefA) = experiment: MIC; type: cell-based; conditions: in µg/mL
K. pneumonia 13883 = experiment: MIC; type: cell-based; conditions: in µg/mL
S. pyogenes ATCC 19615 = experiment: MIC; type: cell-based; conditions: in µg/mL
[5] = system: N. gonorrhoeae ATCC 49226; experiment: MIC; type: cell-based; parameters: unit not given beside the values
P. aeruginosa ATCC 27853 = experiment: MIC; type: cell-based

Row | SMILES | MIC S. pneumoniae 303 (ErmB) (S. pneumoniae 303 (ErmB)) | MIC S. aureus 96:11480 (MLS-I) [1] | MIC S. aureus MRSA 33591 (S. aureus MRSA 33591) | TNFα inhibition (%) (TNFα) | MIC E. faecium ATCC 19434 (E. faecium ATCC 19434) | MIC S. typhimurium ATCC 14028 [2] | MIC H. influenzae ATCC 49247 (H. influenzae ATCC 49247) | MIC S. aureus ATCC 29213 (MSSA) MLS-S [3] | MIC S. pneumoniae ATCC 49619 (S. pneumoniae ATCC 49619) | Cell Toxicity (% cell death) [4] | IL-8 inhibition (%) (IL-8) | MMP9 inhibition (%) (MMP9) | restoration of H2O2-reduced HDAC activity (%) (HDAC activity) | MIC E. coli ATCC 25922 (E. coli ATCC 25922) | MIC S. pneumoniae 163 (MefA) (S. pneumoniae 163 (MefA)) | MIC K. pneumonia 13883 (K. pneumonia 13883) | other results
1 | CCC1OC(=O)C(C)C(=O)C(C)C(OC2OC(C)CC(N(C)C)C2O)C(C)(OC)CC(C)C(=O)C(C)C2N(CCCCN)C(=O)OC12C (centres unmarked) [Example 1] | > 64 µg/mL | 8 | > 64 µg/mL | 73% | 4 µg/mL (≈ 5.85 µM) | >64 | > 64 µg/mL | 8 µg/mL (≈ 11.7 µM) | ≤ 0.125 µg/mL | 6% | 72% | 55 (43) % | 68 (53) % | >64 | 0.5 and 1 | >64 | concentration at which PMA-induced MMP9 up-regulation is inhibited (MMP9; U937, pretreated 1 hr, PMA 50 ng/ml 48 hrs): ≥ 300 µM; concentration at which the H2O2-induced reduction in HDAC activity is restored (HDAC activity; PMA-differentiated U937, pretreated 20 min, H2O2 200 μM 4 hrs): ≥ 100 µM; MIC H. influenzae LC002 (H. influenzae LC002): > 64 µg/mL; MIC S. pyogenes ATCC 19615 (S. pyogenes ATCC 19615): 0.25 and 0.5
2 | CCC1OC(=O)C(C)(F)C(=O)C(C)C(OC2OC(C)CC(N(C)C)C2O)C(C)(OC)CC(C)C(=O)C(C)C2N(CCCCn3cc(Cn4nnc5ccccc54)nn3)C(=O)OC12C (centres unmarked) [Example 22] | ≤ 0.125 µg/mL | ≤0.125 | > 64 µg/mL | 48% | ≤ 0.125 µg/mL | 64 | 2 µg/mL (≈ 2.26 µM) | ≤ 0.125 µg/mL | ≤ 0.125 µg/mL | 11% | 76% | 38 (23) % | 22 (29) % | >64 | 64 | >64 | MIC N. gonorrhoeae ATCC 49226 [5]: 0.25; MIC P. aeruginosa ATCC 27853 (P. aeruginosa ATCC 27853): > 64 µg/mL
